Assay results reported in patent US7417036B2, “Crystal form of adefovir dipivoxil and its preparation” (Tianjin Kinsly Pharmaceutical Co. Ltd., priority 2002, dated 2008).
“And” between values parts separate entries of the source, which are not always exact repeats. Equal values may be shown once.

Assay: Kinetic studies of the plasma concentration in animals with different crystalline forms of AD (oral, monkeys; adefovir measured in serum by HPLC)
Assay type: in vivo, Macaques
Protocol: The experiment was carried out by orally administering to monkeys the drugs in order to investigate the in vivo absorption of two crystalline forms of AD: the novel crystalline AD of the present invention produced by Tianjin Kinsly pharmaceutical R & D Co. Ltd. and crystalline form I of AD prepared according to the method of GILEAD SCIENCES INC. The experiment provides useful clinical references for the application of novel crystalline AD.
Tablets of novel crystalline form of AD, white, each of which contains 10 mg of adefovir, Tianjin Kinsly pharmaceutical R&D Co. Ltd., batch number 020320.
Tablets of AD crystalline form I, white, each of which contains 10 mg of adefovir, Tianjin Kinsly pharmaceutical R&D Co. Ltd., batch number 020225.
Macaques, weighing from 5 kg to 8 kg (certificate No: 2001-03, approved by Beijing Forestry Administration in the document of [2001] 83) were provided by Xie'er Animal Health Caring Science and Technology Co. Ltd (Beijing, P. R. China).
As the pro-drug of adefovir, AD is the bis-pivaloyloxymethyl ester of adefovir, which increases the in vivo bioavailability of orally administered adefovir. AD can be rapidly metabolized into PMEA, rendering it undetectable in blood. Thus the concentration of its parent compound was measured.
Mobile phase: 0.2% phosphoric acid-methanol-B7 (97:3:0.5) degassed and filtrated through 0.45 μm milipore filter.
Stationary phase: C18-column (4.6×250 mm) packed with 5μ fillers, Tianjin Tianhe Chromatogram Inc, the column temperature from 18° C. to 22° C.
Detection: the UV detection wavelength λ=260 nm (0.01AUFS)
A given volume of serum was taken and an equal volume of 10% trichloroacetic acid was added. The mixture was shaken thoroughly and kept still for more than 30 min to precipitate the proteins, then centrifuged at 10000 rpm for 2 min. The precipitates were separated and 30 μL of the supernat was removed for injection.
The experiment was started one week after intestinal worms were dispelled from the animals. Eight animals were randomly assigned into two groups, each consisting of four animals. The animals were fasted for 12 h and were orally administered the novel crystalline form of AD for one group or crystalline form I of AD for another group at a dose of 20 mg/kg together with 200 ml of water. 2 hours after administration, the animals were fed in a fixed quantity. 2.0 ml samples of whole blood were collected from the elbow veins before administration and 10, 20, 30, 45 min and 1, 2, 4, 6, 8, 12, and 24 h after administration. The serum was separated and freeze-stored for measurement. A cross-experiment was done similarly 2 weeks later.
The pharmacokinetic parameters were calculated based on the plasma concentrations at different time points. The time to peak concentration (Tpeak) and the maximum concentration (Cmax) used the measured value. The terminal phase elimination rate constant (Ke) was obtained by fitting the linear section of the curve of logarithm of the plasma concentration of drug in terminal phase versus time and the terminal phase clearance half life time (T1/2) was calculated by dividing 0.693 by Ke. AUC0-t was calculated according to the trapezoid rule.
Apparent volume of distribution (Vd)=dosage/(AUCXKe);
Total Clearance (CL)=dosage/AUC.
Comparison of the data of the two crystalline form: Data of Cmax, Ke, T1/2 and AUC0-t were statistically processed by t test, while Tpeak was processed by non-parametric test. In addition, Comparison of bio-equivalence was carried out based on Cmax and AUC0-t by using two one-sided t test.
Eight macaques were assigned into two groups, group for the novel crystalline form and the group for crystalline form I. The animals were administered according to an open randomized crossover scheme. Afterward, adefovir concentrations in serum were measured at the predetermined time points. […]

[1] = adefovir, oral 20 mg/kg, macaques, average of 8 animals (ASD row)
[2] = adefovir, oral 20 mg/kg, macaques, individual animal No. 1-8, listed as Crystalline form I, 20 mg/kg

With `CC(C)(C)C(=O)OCOP(=O)(COCCn1cnc2c(N)ncnc21)OCOC(=O)C(C)(C)C` [crystalline form I, reference compound] the “Adefovir concentrations in serum (Plasma concentrations versus time), average” value (0.167 h after oral administration, 20 mg/kg, macaques, average of 8 animals (ASD row)) was 77.0 ng/mL, the “Adefovir concentrations in serum (Plasma concentrations versus time)” value (0.167 h after oral administration, 20 mg/kg, macaques, individual animal No. 1-8, 20 mg/kg) was 66.6 ng/mL and 90.1 ng/mL and the “Adefovir concentrations in serum (Plasma concentrations versus time), average” value (0.333 h after oral administration, 20 mg/kg, macaques, average of 8 animals (ASD row)) was 235.4 ng/mL. The “Adefovir concentrations in serum (Plasma concentrations versus time)” value (0.333 h after oral administration, 20 mg/kg, macaques, individual animal No. 1-8, 20 mg/kg) was 148.0 ng/mL, the “Adefovir concentrations in serum (Plasma concentrations versus time), average” value (0.5 h after oral administration, 20 mg/kg, macaques, average of 8 animals (ASD row)) was 546.7 ng/mL and the “Adefovir concentrations in serum (Plasma concentrations versus time)” value (0.5 h after oral administration, 20 mg/kg, macaques, individual animal No. 1-8, 20 mg/kg) was 397.9 ng/mL. For the same compound, the “Adefovir concentrations in serum (Plasma concentrations versus time), average” value (0.75 h after oral administration, 20 mg/kg, macaques, average of 8 animals (ASD row)) was 350.9 ng/mL, the “Adefovir concentrations in serum (Plasma concentrations versus time)” value (0.75 h after oral administration, 20 mg/kg, macaques, individual animal No. 1-8, 20 mg/kg) was 305.2 ng/mL and the “Adefovir concentrations in serum (Plasma concentrations versus time), average” value (1 h after oral administration, 20 mg/kg, macaques, average of 8 animals (ASD row)) was 285.2 ng/mL. For the same compound, the “Adefovir concentrations in serum (Plasma concentrations versus time)” value (1 h after oral administration, 20 mg/kg, macaques, individual animal No. 1-8, 20 mg/kg) was 196.6 ng/mL, the “Adefovir concentrations in serum (Plasma concentrations versus time), average” value (2 h after oral administration, 20 mg/kg, macaques, average of 8 animals (ASD row)) was 230.5 ng/mL and the “Adefovir concentrations in serum (Plasma concentrations versus time)” value (2 h after oral administration, 20 mg/kg, macaques, individual animal No. 1-8, 20 mg/kg) was 161.3 ng/mL. For the same compound, the “Adefovir concentrations in serum (Plasma concentrations versus time), average” value (4 h after oral administration, 20 mg/kg, macaques, average of 8 animals (ASD row)) was 177.5 ng/mL, the “Adefovir concentrations in serum (Plasma concentrations versus time)” value (4 h after oral administration, 20 mg/kg, macaques, individual animal No. 1-8, 20 mg/kg) was 89.3 ng/mL and the “Adefovir concentrations in serum (Plasma concentrations versus time), average” value (6 h after oral administration, 20 mg/kg, macaques, average of 8 animals (ASD row)) was 146.8 ng/mL. The “Adefovir concentrations in serum (Plasma concentrations versus time)” value (6 h after oral administration, 20 mg/kg, macaques, individual animal No. 1-8, 20 mg/kg) was 102.0 ng/mL, the “Adefovir concentrations in serum (Plasma concentrations versus time), average” value (8 h after oral administration, 20 mg/kg, macaques, average of 8 animals (ASD row)) was 116.7 ng/mL and the “Adefovir concentrations in serum (Plasma concentrations versus time)” value (8 h after oral administration, 20 mg/kg, macaques, individual animal No. 1-8, 20 mg/kg) was 82.9 ng/mL. The “Adefovir concentrations in serum (Plasma concentrations versus time), average” value (12 h after oral administration, 20 mg/kg, macaques, average of 8 animals (ASD row)) was 86.0 ng/mL, the “Adefovir concentrations in serum (Plasma concentrations versus time)” value (12 h after oral administration, 20 mg/kg, macaques, individual animal No. 1-8, 20 mg/kg) was 70.1 ng/mL and 72.6 ng/mL and the “Adefovir concentrations in serum (Plasma concentrations versus time), average” value (24 h after oral administration, 20 mg/kg, macaques, average of 8 animals (ASD row)) was 44.3 ng/mL. For the same compound, the “Adefovir concentrations in serum (Plasma concentrations versus time)” value (24 h after oral administration, 20 mg/kg, macaques, individual animal No. 1-8, 20 mg/kg) was 36.8 ng/mL and 56.6 ng/mL, the Vd (adefovir apparent volume of distribution, oral 20 mg/kg, macaques, individual animal No. 1-8, 20 mg/kg) was 125.6 L and 107.3 L and 85.8 L and 95.0 L and 145.1 L and 76.6 L and 158.8 L and 99.9 L and the “average AUCO-T” value (adefovir, oral 20 mg/kg) was 2723.82 ng·h/mL. The “average Tpeak” value (adefovir, oral 20 mg/kg) was 0.53 h, the “average apparent volume of distribution (Vc)” value (adefovir, oral 20 mg/kg) was 17.50 L and the “average elimination half-life time” value (adefovir, oral 20 mg/kg) was 10.5 h. For the same compound, the average peak concentration (adefovir, oral 20 mg/kg) was 551.21 ng/mL, the “Cmax, average” value (adefovir, oral 20 mg/kg, macaques, average of 8 animals) was 551.21 ng/mL and the “CL, average” value [1] was 7723.2 mL/h. For the same compound, the “Ke, average” value [1] was 0.072 L/h, the “T1/2, average” value [1] was 10.5 h and the “Tpeak, average” value [1] was 0.53 h. For the same compound, the “Vd, average” value [1] was 117.0 L, the “AUC0-t, average” value (adefovir, oral 20 mg/kg, macaques, average of 8 animals, listed as Crystalline form I, 20 mg/kg) was 2723.8 ng·h/mL and the “AUC0-t, average” value (adefovir, oral 20 mg/kg, macaques, average of 8 animals, listed as Form I, 20 mg/kg) was 2724 ng·h/mL. The AUC0-t [2] was 2214.1 ng·h/mL and 2624.4 ng·h/mL and 2188.0 ng·h/mL and 3647.5 ng·h/mL and 3379.4 ng·h/mL and 3452.3 ng·h/mL and 2317.8 ng·h/mL and 1967.0 ng·h/mL, the Cmax [2] was 402.2 ng/mL and 785.4 ng/mL and 366.2 ng/mL and 698.1 ng/mL and 915.4 ng/mL and 432.2 ng/mL and 412.3 ng/mL and 397.9 ng/mL and the T1/2 [2] was 9.6 h and 9.8 h and 6.5 h and 12.0 h and 17.0 h and 9.2 h and 12.8 h and 6.8 h. The Tpeak [2] was 0.5 h (7×) and 0.75 h and the Cmax (adefovir, oral 20 mg/kg, macaques, individual animal No. 1-8, listed as Form I, 20 mg/kg) was 689.1 ng/mL.
